Measurements published in PubChem BioAssay AID328 (DTP/NCI, 2004).
“And” between values parts separate entries of the source, which are not always exact repeats. Equal entries are not always repeated. Toxic doses and inconclusive results are not listed. The calls were made as follows: active = survival T/C of 150% or more; inactive = T/C below 125% in these data.

Tested on: BDF1 mice, P388 leukemia ip, median survival T/C
Assay: NCI In Vivo Anticancer Drug Screen. Data for tumor model P388 Leukemia (intraperitoneal) in B6D2F1 (BDF1) mice
Conditions: endpoint: median survival time, higher = longer survival
How it was run: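 Vehicle-dosed animals serve as the reference; survival of compound-dosed, tumour-implanted mice is divided by it.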

[1] = dose: 12.5 mg/kg/injection, schedule: Q01DX009 (ip), vehicle: saline with Tween-80
[2] = dose: 25.0 mg/kg/injection, schedule: Q01DX009 (ip), vehicle: saline with Tween-80
[3] = dose: 25.0 mg/kg/injection, schedule: Q04DX003 (ip), vehicle: saline with Tween-80
[4] = dose: 50.0 mg/kg/injection, schedule: Q01DX009 (ip), vehicle: saline with Tween-80
[5] = dose: 100.0 mg/kg/injection, schedule: Q01DX009 (ip), vehicle: saline with Tween-80
[6] = dose: 100.0 mg/kg/injection, schedule: Q01DX009 (ip), vehicle: Klucel (hydroxypropylcellulose) (HPC)
[7] = dose: 200.0 mg/kg/injection, schedule: Q01DX009 (ip), vehicle: Klucel (hydroxypropylcellulose) (HPC)
[8] = dose: 50.0 mg/kg/injection, schedule: Q01DX009 (ip), vehicle: saline
[9] = dose: 100.0 mg/kg/injection, schedule: Q01DX009 (ip), vehicle: saline
[10] = dose: 100.0 mg/kg/injection, schedule: Q04DX003 (ip), vehicle: saline
[11] = dose: 200.0 mg/kg/injection, schedule: Q01DX009 (ip), vehicle: saline
[12] = dose: 200.0 mg/kg/injection, schedule: Q04DX003 (ip), vehicle: saline
[13] = dose: 400.0 mg/kg/injection, schedule: Q04DX003 (ip), vehicle: saline
[14] = dose: 100.0 mg/kg/injection, schedule: Q04DX003 (ip), vehicle: saline with Tween-80
[15] = dose: 200.0 mg/kg/injection, schedule: Q01DX009 (ip), vehicle: saline with Tween-80
[16] = dose: 200.0 mg/kg/injection, schedule: Q04DX003 (ip), vehicle: saline with Tween-80
[17] = dose: 50.0 mg/kg/injection, schedule: Q04DX003 (ip), vehicle: Klucel (hydroxypropylcellulose) (HPC)
[18] = dose: 100.0 mg/kg/injection, schedule: Q04DX003 (ip), vehicle: Klucel (hydroxypropylcellulose) (HPC)
[19] = dose: 200.0 mg/kg/injection, schedule: Q04DX003 (ip), vehicle: Klucel (hydroxypropylcellulose) (HPC)
[20] = dose: 12.5 mg/kg/injection, schedule: Q01DX009 (ip), vehicle: saline
[21] = dose: 25.0 mg/kg/injection, schedule: Q01DX009 (ip), vehicle: saline
[22] = dose: 6.25 mg/kg/injection, schedule: Q01DX009 (ip), vehicle: saline

Measured: T/C

CC(=O)CC(=O)NCCCN1CCCCC1
inactive: [1] 92 % of control | [2] 88 % of control | [3] 96 % of control | dose: 50.0 mg/kg/injection, schedule: Q04DX003 (ip), vehicle: saline with Tween-80 88 % of control

CS(=O)(=O)c1cnc2ccccc2n1
inactive: [2] 97 % of control | [4] 99 % of control | [5] 90 % of control

NC(=O)C(N)=O
inactive: [6] 103 % of control | [7] 93 % of control | dose: 400.0 mg/kg/injection, schedule: Q01DX009 (ip), vehicle: Klucel (hydroxypropylcellulose) (HPC) 109 % of control

O=c1[nH]cc(CCCO)c(=O)[nH]1
inactive: [8] 91 % of control | [9] 102 % of control | [10] 109 % of control | [11] 100 % of control | [12] 100 % of control | dose: 400.0 mg/kg/injection, schedule: Q01DX009 (ip), vehicle: saline 100 % of control | [13] 109 % of control

O=c1[nH]c2cc(Cl)c(Cl)cc2o1
inactive: dose: 50.0 mg/kg/injection, schedule: Q01DX009 (ip), vehicle: Klucel (hydroxypropylcellulose) (HPC) 115 % of control | [4] 104 % of control | [6] 115 % of control | [5] 100 % of control | [14] 100 % of control | [7] 110 % of control | [15] 104 % of control | [16] 95 % of control

O=C(O)CCCCCNC(=O)c1ccccc1
inactive: [17] 118 % of control | dose: 100.0 mg/kg/injection, schedule: Q01DX001 (ip), vehicle: Klucel (hydroxypropylcellulose) (HPC) 100 % of control | [18] 100 % of control | dose: 200.0 mg/kg/injection, schedule: Q01DX001 (ip), vehicle: Klucel (hydroxypropylcellulose) (HPC) 104 % of control | [19] 100 % of control | dose: 400.0 mg/kg/injection, schedule: Q01DX001 (ip), vehicle: Klucel (hydroxypropylcellulose) (HPC) 100 % of control

O=S(=O)(C=C(N1CCCCC1)N1CCCCC1)Cc1ccccc1
inactive: dose: 8.75 mg/kg/injection, schedule: Q01DX009 (ip), vehicle: saline 105 % of control | dose: 17.5 mg/kg/injection, schedule: Q01DX009 (ip), vehicle: saline 115 % of control | dose: 26.25 mg/kg/injection, schedule: Q04DX003 (ip), vehicle: saline 108 % of control | dose: 35.0 mg/kg/injection, schedule: Q01DX009 (ip), vehicle: saline 105 % of control | dose: 52.5 mg/kg/injection, schedule: Q04DX003 (ip), vehicle: saline 104 % of control

Cc1ncc(CSc2ccccc2N)c(CO)c1O
inactive: [4] 91 % of control | [5] 92 % of control | [15] 94 % of control

[Cl][Cr]([Cl])[Cl].[NH-]CC[N-]CC[NH-]
inactive: [4] 116 % of control | [5] 100 % of control | [15] 100 % of control

O=C(CCCc1ccc(N(CCCl)CCCl)cc1)Nc1ccccc1
active: [14] 210 % of control
inactive: dose: 25.0 mg/kg/injection, schedule: Q01DX009 (ip), vehicle: saline sonified 109 % of control | [3] 120 % of control | dose: 50.0 mg/kg/injection, schedule: Q01DX009 (ip), vehicle: saline sonified 100 % of control | dose: 100.0 mg/kg/injection, schedule: Q01DX009 (ip), vehicle: saline sonified 113 % of control

O=[N+]([O-])c1ccc(/C=C/c2ncc[nH]2)o1
inactive: [17] 100 % of control | [18] 100 % of control | [19] 100 % of control

CS(=O)(=O)Nc1ccccc1O
inactive: dose: 50.0 mg/kg/injection, schedule: Q01DX009 (ip), vehicle: other 96 % of control | dose: 100.0 mg/kg/injection, schedule: Q01DX009 (ip), vehicle: other 104 % of control | dose: 200.0 mg/kg/injection, schedule: Q01DX009 (ip), vehicle: other 97 % of control

CC(=N\[O-])/C(C)=N/O.CC(=N\[O-])/C(C)=N/O.CCCc1ccncc1.[Cl-].[Cl-].[Rh+3]
inactive: [20] 100 % of control | [21] 102 % of control | [8] 105 % of control | [9] 102 % of control

CC(=O)OC1C=COC(C)C1OC(C)=O (stereo not drawn)
inactive: [8] 98 % of control | [9] 114 % of control | [10] 100 % of control | [12] 99 % of control | [13] 100 % of control

COC(=O)c1cncc(C(=O)OC)c1
inactive: [14] 100 % of control | dose: 176.0 mg/kg/injection, schedule: Q04DX003 (ip), vehicle: saline with Tween-80 100 % of control | [16] 95 % of control | dose: 264.0 mg/kg/injection, schedule: Q04DX003 (ip), vehicle: saline with Tween-80 100 % of control | dose: 400.0 mg/kg/injection, schedule: Q04DX003 (ip), vehicle: saline with Tween-80 100 % of control

C/C(=C/c1c(C)[nH]c(=O)[nH]c1=O)C(=O)O
inactive: [21] 89 % of control | [8] 89 % of control | [9] 96 % of control | [10] 101 % of control | [11] 105 % of control | [12] 91 % of control | [13] 87 % of control

CCC(CC)N(C)C(C)(C)CO
inactive: [2] 100 % of control | [4] 91 % of control | dose: 50.0 mg/kg/injection, schedule: Q04DX003 (ip), vehicle: saline sonified 104 % of control | [5] 108 % of control | dose: 100.0 mg/kg/injection, schedule: Q04DX003 (ip), vehicle: saline sonified 104 % of control | dose: 200.0 mg/kg/injection, schedule: Q04DX003 (ip), vehicle: saline sonified 113 % of control

CCCCCCCCCCC[N+](C)(C)CC(O)C[N+](C)(C)CCCCCCCCCCC
inactive: dose: 3.13 mg/kg/injection, schedule: Q01DX009 (ip), vehicle: saline 102 % of control | [22] 111 % of control | [20] 118 % of control

COc1cc2c(c(OC)c1OC)-c1cc(I)c(O)cc1[C@@H](NC(C)=O)CC2
active: dose: 11.0 mg/kg/injection, schedule: Q04DX003 (ip), vehicle: saline with Tween-80 155 % of control | dose: 22.0 mg/kg/injection, schedule: Q04DX003 (ip), vehicle: saline with Tween-80 160 % of control | dose: 66.0 mg/kg/injection, schedule: Q04DX003 (ip), vehicle: saline with Tween-80 185 % of control and 222 % of control | [14] 180 % of control and 194 % of control | dose: 150.0 mg/kg/injection, schedule: Q04DX003 (ip), vehicle: saline with Tween-80 205 % of control
inactive: dose: 2.75 mg/kg/injection, schedule: Q04DX003 (ip), vehicle: saline with Tween-80 110 % of control | dose: 5.5 mg/kg/injection, schedule: Q04DX003 (ip), vehicle: saline with Tween-80 104 % of control

CC[N+](C)(C)c1ncnc2nc[nH]c12
inactive: [21] 91 % of control | [8] 95 % of control | [9] 87 % of control and 91 % of control | [10] 104 % of control | [11] 95 % of control | [12] 104 % of control

CC(=O)OC1CCC2(C)C(CCC3(C)C2CCC2C4C5OC(=O)C4(CCC5(C)C)CCC23C)C1(C)C (stereo not drawn)
inactive: dose: 10.0 mg/kg/injection, schedule: Q01DX009 (ip), vehicle: Klucel (hydroxypropylcellulose) (HPC) 105 % of control | dose: 20.0 mg/kg/injection, schedule: Q01DX009 (ip), vehicle: Klucel (hydroxypropylcellulose) (HPC) 114 % of control | dose: 40.0 mg/kg/injection, schedule: Q01DX009 (ip), vehicle: Klucel (hydroxypropylcellulose) (HPC) 110 % of control

CCSC1(SCC)C(=O)OC2=C(CCCC2)C1N1CCOCC1 (stereo not drawn)
inactive: [4] 99 % of control | [5] 99 % of control | [15] 94 % of control

CC1(C)C/C(=C\c2ccc(Cl)cc2)C(=O)c2ccccc21
inactive: [18] 100 % of control | [19] 100 % of control | dose: 400.0 mg/kg/injection, schedule: Q04DX003 (ip), vehicle: Klucel (hydroxypropylcellulose) (HPC) 91 % of control

CC1CCCCN1CCCO (stereo not drawn)
inactive: [21] 104 % of control | [8] 108 % of control | dose: 50.0 mg/kg/injection, schedule: Q04DX003 (ip), vehicle: saline 92 % of control | [9] 112 % of control | [10] 96 % of control

N#Cc1ccc(C[n+]2cccc3c([N+](=O)[O-])cccc32)cc1
inactive: [1] 103 % of control | [2] 108 % of control | [4] 118 % of control

N#Cc1ccc(/C=N/NC(N)=S)s1
inactive: [4] 97 % of control | [5] 102 % of control | [15] 97 % of control

CN(C)c1ccc(C(O)C(N)=O)cc1 (stereo not drawn)
inactive: [22] 90 % of control | [21] 90 % of control
